Measurements published in PubChem BioAssay AID2060894 (Molecular Pharmacology Branch, DTP, NCI, 2025).

System: K12877-001-R-J1-PDC complex spheroid viability
Assay: Anticancer human tumor K12877-001-R-J1-PDC patient-derived lung adenocarcinoma cell line growth inhibition [RAS]
Settings: for IC50: curve of first compound; for viability, T/C: stronger effect = lower value
Text: RAS pathway inhibitors in Combinations in Complex Spheroids
A high-throughput screen of multi-cell type tumor spheroids was designed to identify active combinations of RAS pathway inhibitors and targeted small molecules. Complex spheroids include a stromal component modeled by human endothelial cells (HUVEC) and fibroblasts modeled by human mesenchymal stem cells (MSCs). The concentration ranges selected for each drug and investigational agent were based upon clinically achievable concentrations if the clinical Cmax of the agent was known.
Compounds. The drugs and investigational agents: abemaciclib (NSC768073), cobimetinib (NSC768068), divarasib (GDC6063, NSC841802), docetaxel (NSC628503), GDC-1971 (RLY-1971, NSC841576), gemcitabine (NSC613327), inavolisib (NSC800729), ipatasertib (NSC767898), KB-0742 (NSC834161), MRTX-1133 (NSC836407), osimertinib (NSC779217), RMC-4630 (NSC839698), RMC-6236 (NSC851965), RMC-6291 (NSC852671), Ro-3306 (NSC812927), sapanisertib (NSC764658), SN-38 (NSC673596), staurosporine (NSC755774), SY5609 (NSC837396), and tovorafenib (DAY101, NSC766906), were obtained from the National Cancer Institute (NCI) Developmental Therapeutics Program Chemical Repository. The FDA-approved anticancer drug set is available from the NCI Developmental Therapeutics Program. […] The stock solutions were prepared in dimethyl sulfoxide (DMSO, Sigma-Aldrich, St. Louis, MO, cat. D2650) at 800-fold the tested concentration and stored at -70 degrees C prior to their use. All drugs and investigational agents were tested over a range starting from a high concentration at or near the clinical Cmax and decreasing in half-log increments. If the clinical Cmax for an agent had not been determined, the highest concentration tested was 10 microM.
Cell Culture. All cells were maintained in an incubator at 37 degrees C and 5% CO2 with 95% humidity. The PDC lines were cultured according to standard operating procedures established by the NCI PDMR. All PDCs were thawed and cultured in Matrigel-coated flasks prepared with a working solution of 1X Ham's F-12 nutrient mix, without supplementation (Invitrogen, Waltham, MA, cat. 11765054), 100 U/mL penicillin-streptomycin (Invitrogen, cat. 15140122), and 2.5% Matrigel (Corning Inc., Corning, NY, cat. 354248) for the first three passages. The 362531-283-R-J2-PDC and 782815-120-R-J1-PDC lines were cultured in 6C/Colon 1B media, which includes advanced DMEM/F-12 (Thermo Fisher Scientific, cat. 12634028), 10 mM HEPES (Thermo Fisher Scientific, cat. 15630080), 1X GlutaMAX supplement (Thermo Fisher Scientific, cat. 35050061), 0.1 mg/mL primocin (InvivoGen, San Diego, CA, cat. ant-pm-2), 10% defined fetal bovine serum, heat inactivated (HyClone Laboratories Inc., Logan, UT, cat. SH30070.03HI), 50% L-WRN conditioned media (ATCC, cat. CRL-3276), 1.25 mM N-Acetyl-L-cysteine (Sigma-Aldrich, cat. A9165), 10 mM nicotinamide (Sigma-Aldrich, cat. N0636), 1X B-27 supplement (Thermo Fisher Scientific, cat. 17504044), 1X N-2 supplement (Thermo Fisher Scientific, cat. 17502048), 50 ng/mL human EGF (Thermo Fisher Scientific, cat. PHG0311), and 10 microM Y-27632 dihydrochloride (Tocris Bioscience, cat. 1254). The K12877-001-R-J1-PDC line was cultured in 6I media, which includes all 6C/Colon 1B media plus 10 ng/mL human FGF-10 (PeproTech, cat. 100-26), 1 ng/mL human FGF-2 (PeproTech, cat. 100-18B), 1 µM prostaglandin E2 (Tocris Bioscience, cat. 2296), […] hydrocortisone (Sigma-Aldrich, cat. H4001), and […] bovine insulin (Sigma-Aldrich, cat. I6634). The K86415-001-R-J1-PDC line was cultured in 6D media, which includes all 6C/Colon 1B media components minus the L-WRN conditioned media. The 485176-168-R4-J1-PDC was cultured in PANC media, which includes all 6C/Colon 1B media plus 100 ng/mL human FGF-10 (PeproTech, cat. 100-26), 500 nM SB-431542 (Selleckchem, cat. S1067), and 10 nM gastrin (Tocris Bioscience, cat. 3006). […]
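Note: spheroids exposed to agents for one week before readout.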

With `O=C(c1ccc(F)c(F)c1Nc1ccc(I)cc1F)N1CC(O)([C@@H]2CCCCN2)C1` + C=CC(=O)N1CCN(c2nc(OCC3CCCN3C)nc3c(F)c(-c4nc(N)cc(C)c4C(F)(F)F)c(Cl)cc23)C(C)C1 the IC50 (second compound 0.00316 µM) was > 1 µM, the IC50 (second compound 0.01 µM) was > 1 µM and the IC50 (second compound 0.0316 µM) was > 1 µM. The IC50 (second compound 0.1 µM) was > 1 µM, the IC50 (second compound 0.316 µM) was > 1 µM and the IC50 (second compound 1 µM) was > 1 µM. For the same compound, the viability, T/C (second compound 0.00316 µM, first compound 0.00316 µM) was 104%, the viability, T/C (second compound 0.00316 µM, first compound 0.01 µM) was 103% and the viability, T/C (second compound 0.00316 µM, first compound 0.0316 µM) was 89.5%. The viability, T/C (second compound 0.00316 µM, first compound 0.1 µM) was 91.7%, the viability, T/C (second compound 0.00316 µM, first compound 0.316 µM) was 72.2% and the viability, T/C (second compound 0.00316 µM, first compound 1 µM) was 54.5%. For the same compound, the viability, T/C (second compound 0.01 µM, first compound 0.00316 µM) was 94.5%, the viability, T/C (second compound 0.01 µM, first compound 0.01 µM) was 95% and the viability, T/C (second compound 0.01 µM, first compound 0.0316 µM) was 78.9%. For the same compound, the viability, T/C (second compound 0.01 µM, first compound 0.1 µM) was 90.7%, the viability, T/C (second compound 0.01 µM, first compound 0.316 µM) was 68.1% and the viability, T/C (second compound 0.01 µM, first compound 1 µM) was 58.3%. The viability, T/C (second compound 0.0316 µM, first compound 0.00316 µM) was 93%, the viability, T/C (second compound 0.0316 µM, first compound 0.01 µM) was 85.2% and the viability, T/C (second compound 0.0316 µM, first compound 0.0316 µM) was 77.5%. It also gave a viability, T/C (second compound 0.0316 µM, first compound 0.1 µM) of 87.6%, a viability, T/C (second compound 0.0316 µM, first compound 0.316 µM) of 71.1% and a viability, T/C (second compound 0.0316 µM, first compound 1 µM) of 66.4%. For the same compound, the viability, T/C (second compound 0.1 µM, first compound 0.00316 µM) was 85.2%, the viability, T/C (second compound 0.1 µM, first compound 0.01 µM) was 89.3% and the viability, T/C (second compound 0.1 µM, first compound 0.0316 µM) was 83.7%. The viability, T/C (second compound 0.1 µM, first compound 0.1 µM) was 82.2%, the viability, T/C (second compound 0.1 µM, first compound 0.316 µM) was 72.4% and the viability, T/C (second compound 0.1 µM, first compound 1 µM) was 55.4%. The viability, T/C (second compound 0.316 µM, first compound 0.00316 µM) was 85.7%, the viability, T/C (second compound 0.316 µM, first compound 0.01 µM) was 83.3% and the viability, T/C (second compound 0.316 µM, first compound 0.0316 µM) was 84.7%. For the same compound, the viability, T/C (second compound 0.316 µM, first compound 0.1 µM) was 89.4%, the viability, T/C (second compound 0.316 µM, first compound 0.316 µM) was 72.4% and the viability, T/C (second compound 0.316 µM, first compound 1 µM) was 59%. The viability, T/C (second compound 1 µM, first compound 0.00316 µM) was 79.5%, the viability, T/C (second compound 1 µM, first compound 0.01 µM) was 79.3% and the viability, T/C (second compound 1 µM, first compound 0.0316 µM) was 78.1%. The viability, T/C (second compound 1 µM, first compound 0.1 µM) was 103%, the viability, T/C (second compound 1 µM, first compound 0.316 µM) was 75.3% and the viability, T/C (second compound 1 µM, first compound 1 µM) was 57.2%.
